Test results as given in patent US20200113902A1, “COMPOSITIONS AND METHODS FOR TREATING CANCERS WITH COVALENT INHIBITORS OF CYCLIN-DEPENDENT KINASE 7 (CDK7)” (Syros Pharmaceuticals, Inc., priority 2017, published 2020).

Experiments:
[1] = test system: MCL1 protein in CAL-120 cells; assay: Western blot of BCL2 family proteins, CAL-120; format: cell-based, human; conditions: 50 nM or 100 nM, 24 hours
Description: (§1) Cytotoxic cancer cell lines HCC70 and TOV21G, and cytostatic cancer cell lines T47D and COV318 were seeded in wells of a six-well dish at a density of 1×10^6 cells/well and allowed to adhere overnight. Cells were then treated with 50 nM of Compound 1 for 16 or 24 hours, or with DMSO (0 hours) representing a negative control. Cells were harvested and placed on ice, and resuspended in RIPA lysis buffer supplemented with protease and phosphatase inhibitors. Clarified lysates prepared with 4×LSD running buffer and boiled at 95° C. for 5 minutes. Equivalent amounts of sample (10 μg total protein) were run on a 4-12% Bis-Tris gel and transferred to a PDVF membrane for Western blotting using standard Western blotting protocols. Membranes were blocked with Licor TBS blocking buffer then probed with antibodies for BCL-XL, BCL-2, MCL1, BID, and GAPDH visualized using and Odyssey imager (FIGS. 23A and 23D).
In a similar experiment, TNBC breast cancer cell lines HCC70, MDAMB468, MDAMB453 and CAL-120 were grown as described above and treated with DMSO, 50 nM Compound 1 or 100 nM Compound 1 for 24 hours. Protein samples were prepared as described above for Western blotting using antibodies specific for the indicated proteins in FIG. 29A. […]

[2] = test system: MCL1 protein in MV411 cells; assay: Western blot, AML cell line MV411; format: cell-based; conditions: 50 nM
Description: as §1
We next explored the expression of MCL1, BCL-XL and BCL2 in four different AML cell lines. MV411, OCI-AML3 and KG1 cells were separately grown and prepared as described in Example 2 for Western blotting, using antibodies specific for BCL2 (FIG. 24A), BCL-XL, MCL-1 and tubulin as an internal control (FIG. 24B).

[3] = test system: HCC70 cells; assay: Growth rate (GR) inhibition, Cell Titer Glo 2.0, HCC70; format: cell-based, human; conditions: concentrations greater than 100 nM, 72 hours
Description: To determine the effect of Compound 1 on the growth of TNBC cancer cells, four different human TNBC cell lines were used—HCC70, MDA-MB-468, MDA-MB-453 and CAL120. Cells from each cell line were plated separately at 50,000 cells/mL (100 uL per well) in a black-walled 96 well plate and allowed to adhere overnight. In parallel, cells were plated in a separate day 0 plate to measure the number of cells present upon compound addition. The next day, Compound 1 was added to the wells with an HP 300e compound dispenser in a 10-point serial dilution and cells incubated for 72 hours. On the same day Cell Titer Glo 2.0 reagent was added to the day 0 plate, and the luminescence measured with an Envision plate reader per manufacture protocol. After 72 hours Cell Titer Glo 2.0 reagent was added to the plates and the luminescence measured. GR curves were calculated as follows: […]
wherein x(c) is the Compound 1 treatment luminescence); x0 is the average Day 0 luminescence); and xctrl is the average DMSO treatment luminescence, and graphed using Graph Pad Prism. A GR value of 1 indicates no growth inhibition; GR values between 0 and 1 indicate partial growth inhibition; a GR value of 0 indicates cytostasis (no change from baseline); GR values less than 0 indicate cytotoxicity (cell number less than baseline); a GR value of −1 indicates complete cell loss.

[4] = test system: OV14702 xenograft; assay: Ovarian PDX OV14702, tumor volume; format: in vivo, mouse; conditions: OV14702 (RB1 null); 40 or 30 mg/kg i.v. BIW
Description: Patient-derived xenograft (PDX) models from ovarian carcinoma patients (OV5387, OV14702, OV14972, OV15398, OV15576, OV15696, OV15612, OV15631) were established in NOD-SCID mice at Crown Bioscience (San Diego, USA). Cryo vials containing tumor cells were thawed and prepared for injection into mice. Cells were washed in PBS, counted, and resuspended in cold PBS at a concentration of 50,000-100,000 viable cells/100 ul. Cell suspensions were mixed with an equal volume of Cultrex ECM and kept on ice during transport to the vivarium. Cells were prepared for injections by withdrawing ECM-Cell mixture into a chilled slip-tip syringe fitted with a 26G 7/8 (0.5 mm×22 mm) needle. The filled syringes were kept on ice to avoid the solidification of ECM. Each mouse was inoculated subcutaneously in the right flank with 200 uL of the cell suspension. Tumor sizes were measured in two dimensions using a caliper, and the volumes were expressed in mm3 using the formula: V=0.5 a×b^2 where a and b are the longest and shortest diameters of the tumor, respectively. Compound 1 treatment was started when the average tumor size reached 150-200 mm^3.
Compound 1 was formulated in w/v 20% Captisol (pH 4-6) and administered by i.v. twice weekly (BIW) at a final dose of 40 mg/kg or 30 mg/kg in a 10 ml/kg volume. Tumor volumes were measured twice weekly over the course of the study. […]

[5] = test system: homologous recombination deficiency / carboplatin sensitivity genes in A2780 cells; assay: Nanostring PanCancer Pathways mRNA, A2780; format: cell-based; conditions: 50 nM, 16 hours
Description: (§2) Ovarian Cell lines OvCar3, TOV21G, A2780 and COV318 were plated at 500,000 cells/well in a 6-well plate the day before treatment. The next day the cells were treated with vehicle or 50 nM Compound 1 for 0, 6, or 16 hours after which cells were harvested and total RNA collected using RNeasy mini kit (Qiagen). Changes in mRNA between samples were analyzed with Nanostring™ PanCancer Pathways Panels specifically analyzing genes related to homologous recombination deficiency and carboplatin sensitivity (ie. BRCA1, BRCA2, Rad51, ATM, ATR, MSH2, MSH6). Nanostring signal intensities were first normalized to housekeeping genes across all cell lines, and then normalized to the 0 hour timepoint within a cell line.

[6] = test system: homologous recombination deficiency / carboplatin sensitivity genes in COV318 cells; assay: Nanostring PanCancer Pathways mRNA, COV318; format: cell-based; conditions: 50 nM, 16 hours
Description: as §2

CN(C)C/C=C/C(=O)Nc1ccc(C(=O)N[C@@]2(C)CCC[C@@H](Nc3ncc(Cl)c(-c4c[nH]c5ccccc45)n3)C2)nc1 [Compound 1, N-((1S,3R)-3-(5-chloro-4-(1H-indol-3-yl)pyrimidin-2-ylamino)-1-methylcyclohexyl)-5-((E)-4-(dimethylamino)but-2-enamido)picolinamide]
MCL1 protein level (Western blot) [1]: downregulated
MCL1 protein level (Western blot) [2]: significant reduction in MCL1
Inhibition of growth (GR curve) [3]: almost complete inhibition of growth
Response to treatment (tumor growth) [4]: responded
mRNA of genes related to homologous recombination deficiency and carboplatin sensitivity, all genes except Rad51 (BRCA1, BRCA2, ATM, ATR, MSH2, MSH6) [5]: downregulated
mRNA of genes related to homologous recombination deficiency and carboplatin sensitivity, all genes except Rad51 (BRCA1, BRCA2, ATM, ATR, MSH2, MSH6) [6]: downregulated
